Experimental findings from US12221453B2, “Substituted pyrazolo[5′,1′:2,3]pyrimido[5,4-b][1,4]oxazines as TYK2 inhibitors” (TAKEDA PHARMACEUTICAL COMPANY LIMITED, priority 2018, dated 2025) are described below.

The test system of this assay is IL-12 induced STAT4 phosphorylation mediated by TYK2/JAK2. Briefly: IL-12 induced pSTAT4 in human PBMC. Format: cell-based. The following applies: 1 hr compound, 1.7 ng/mL IL-12 for 30 minutes. As to the method:
Human PBMC were isolated from buffy coat and are stored frozen for assays as needed. […] 15 μL of compound or DMSO was added to the well at the desired concentrations and incubated at 1 hr at 37° C. 15 μL of stimulus (final concentration of 1.7 ng/mL IL-12) was added for 30 minutes prior to pSTAT4 and total STAT4 analysis using cell lysates prepared and analyzed by MSD reagents as per manufacturer protocol. The final DMSO concentration of compound in the assay was 0.1%. The IL-12 induced pSTAT4 assay evaluates the inhibition of IL-12 induced STAT4 phosphorlyation mediated by TYK2/JAK2 ([…] complex).

The compound `CNc1cc(Nc2cccn(C(C)C)c2=O)nc2c(C(=O)NC3CC[C@@H]3F)cnn12` (mixture of isomers) [Compound I-145] had an IC50 of less than 0.1 µM.
Compound `CNc1cc(Nc2cccn([C@H]3C[C@@H](OC)C3)c2=O)nc2c(C(=O)NC3CC[C@@H]3F)cnn12` (mixture of isomers) [Compound I-173] yielded an IC50 of less than 0.1 µM.
For `CNc1cc(Nc2cccn([C@H]3C[C@H](OC)C3)c2=O)nc2c(C(=O)NC3CC[C@@H]3F)cnn12` (mixture of isomers) [Compound I-176], the IC50 was less than 0.1 µM.
On to `CNc1cc(Nc2cccn(C3[C@H]4COC[C@@H]34)c2=O)nc2c(C(=O)NC3C[C@H]3OC)cnn12` (mixture of isomers) [I-24, 5-((1-((1R,5S,6r)-3-Oxabicyclo[3.1.0]hexan-6-yl)-2-oxo-1,2-dihydropyridin-3-yl)amino)-N-(2-methoxycyclopropyl)-7-(methylamino)pyrazolo[1,5-a]pyrimidine-3-carboxamide], for which the IC50 is less than 0.1 µM.
In the case of `CNc1cc(Nc2cccn([C@@H]3CCC[C@](C)(OC)C3)c2=O)nc2c(C(=O)NC3CC3)cnn12` [Compound I-124], the IC50 is less than 0.1 µM.
Regarding `CNc1cc(Nc2cccn(C3COC3)c2=O)nc2c(C(=O)N[C@@H]3C[C@@H]3F)cnn12` [Compound I-125], the IC50 is less than 0.1 µM.
As for `CNc1cc(Nc2cccn([C@H]3CCC[C@@](C)(O)C3)c2=O)nc2c(C(=O)N[C@@H]3C[C@@H]3F)cnn12` [Compound I-129], the figure is less than 0.1 µM; as for `CNc1cc(Nc2cccn(C3CCC[C@@](C)(OC)C3)c2=O)nc2c(C(=O)N[C@@H]3C[C@@H]3F)cnn12` (stereo partly drawn) [Compound I-130], less than 0.1 µM.
`CNc1cc(Nc2cccn([C@@H]3CCC[C@](C)(OC)C3)c2=O)nc2c(C(=O)N[C@@H]3C[C@@H]3F)cnn12` [Compound I-131] displayed an IC50 of less than 0.1 µM.
As for `CNc1cc(Nc2cccn([C@H]3C[C@@H]3F)c2=O)nc2c(C(=O)N[C@@H]3C[C@H]3OC)cnn12` [Compound I-133], the figure is less than 0.1 µM; as for `CNc1cc(Nc2cccn([C@@H]3C[C@H]3F)c2=O)nc2c(C(=O)N[C@@H]3C[C@H]3OC)cnn12` [Compound I-135], less than 0.1 µM; as for `CNc1cc(Nc2cccn([C@H]3C[C@H](F)C3)c2=O)nc2c(C(=O)N[C@H]3C[C@@H]3OC)cnn12` [Compound I-138], less than 0.1 µM.
As for `CNc1cc(Nc2cccn(C3CC(F)(F)C3)c2=O)nc2c(C(=O)N[C@@H]3C[C@H]3OC)cnn12` [Compound I-139], the figure is less than 0.1 µM; as for `CNc1cc(Nc2cccn([C@H]3C[C@H](OC)C3)c2=O)nc2c(C(=O)NC3CCC3)cnn12` [Compound I-141], less than 0.1 µM; as for `CNc1cc(Nc2cccn([C@H]3[C@@H]4COC[C@@H]43)c2=O)nc2c(C(=O)NC3CCC3)cnn12` [Compound I-142], less than 0.1 µM.
In turn, `CNc1cc(Nc2cccn(C3CCOCC3)c2=O)nc2c(C(=O)NC3CCC3)cnn12` [Compound I-143] registered an IC50 of less than 0.1 µM.
The compound `CNc1cc(Nc2cccn(-c3ocnc3C)c2=O)nc2c(C(=O)NC3CCC3)cnn12` [Compound I-144] had an IC50 of less than 0.1 µM.
As for `CNc1cc(Nc2cccn(C(C)C)c2=O)nc2c(C(=O)N[C@@H]3CC[C@H]3F)cnn12` [Compound I-147], the IC50 is less than 0.1 µM.
The result for `CNc1cc(Nc2cccn([C@H]3C[C@@H]3F)c2=O)nc2c(C(=O)N[C@H]3CC[C@@H]3F)cnn12` [Compound I-149] reads less than 0.1 µM.
In the case of `CNc1cc(Nc2cccn([C@@H]3C[C@H]3F)c2=O)nc2c(C(=O)NC3CC[C@@H]3F)cnn12` (stereo partly drawn) [Compound I-151], the IC50 is less than 0.1 µM.
`CNc1cc(Nc2cccn([C@@H]3C[C@H]3OC)c2=O)nc2c(C(=O)N[C@H]3CC[C@@H]3F)cnn12` [Compound I-155] gave an IC50 of less than 0.1 µM.
The result for `CNc1cc(Nc2cccn([C@H]3C[C@@H]3OC)c2=O)nc2c(C(=O)N[C@H]3CC[C@@H]3F)cnn12` [Compound I-158] reads less than 0.1 µM; that for `CNc1cc(Nc2cccn(C3COC3)c2=O)nc2c(C(=O)NC3CC[C@H]3F)cnn12` (stereo partly drawn) [Compound I-160], less than 0.1 µM.
As for `CNc1cc(Nc2cccn(C3COC3)c2=O)nc2c(C(=O)N[C@@H]3CC[C@@H]3F)cnn12` [Compound I-162], the IC50 was less than 0.1 µM.
On to `CNc1cc(Nc2cccn(C3COC3)c2=O)nc2c(C(=O)NC3CC[C@@H]3F)cnn12` (stereo partly drawn) [Compound I-163], for which the IC50 is less than 0.1 µM.
`CNc1cc(Nc2cccn([C@H]3C[C@H](F)C3)c2=O)nc2c(C(=O)NC3CC[C@@H]3F)cnn12` (stereo partly drawn) [Compound I-164] returned an IC50 of less than 0.1 µM.
Turning to `CNc1cc(Nc2cccn([C@H]3C[C@H](F)C3)c2=O)nc2c(C(=O)N[C@H]3CC[C@@H]3F)cnn12` [Compound I-165], the IC50 was less than 0.1 µM.
In turn, `CNc1cc(Nc2cccn([C@H]3CC[C@H]3O)c2=O)nc2c(C(=O)NC3CC[C@@H]3F)cnn12` (stereo partly drawn) [Compound I-167] displayed an IC50 of less than 0.1 µM.
On to `CNc1cc(Nc2cccn([C@H]3CC[C@H]3O)c2=O)nc2c(C(=O)N[C@@H]3CC[C@H]3F)cnn12` [Compound I-169], for which the IC50 is less than 0.1 µM.
Take `CNc1cc(Nc2cccn([C@H]3C[C@@H](OC)C3)c2=O)nc2c(C(=O)N[C@H]3CC[C@@H]3F)cnn12` [Compound I-174]: the IC50 is less than 0.1 µM.
Turning to `CNc1cc(Nc2cccn([C@H]3C[C@H](OC)C3)c2=O)nc2c(C(=O)N[C@@H]3CC[C@H]3F)cnn12` [Compound I-178], the IC50 is less than 0.1 µM.
On to `CNc1cc(Nc2cccn([C@@H]3CCC[C@@H]3O)c2=O)nc2c(C(=O)NC3CC[C@@H]3F)cnn12` (stereo partly drawn) [Compound I-179], for which the IC50 is less than 0.1 µM.
For `CNc1cc(Nc2cccn([C@@H]3CCC[C@@H]3O)c2=O)nc2c(C(=O)N[C@@H]3CC[C@H]3F)cnn12` [Compound I-181], the IC50 was less than 0.1 µM.
As to `CNc1cc(Nc2cccn(-c3ocnc3C)c2=O)nc2c(C(=O)NC3CC[C@@H]3F)cnn12` (stereo partly drawn) [Compound I-185], the IC50 was less than 0.1 µM.
As to `CNc1cc(Nc2cccn(-c3ocnc3C)c2=O)nc2c(C(=O)N[C@H]3CC[C@@H]3F)cnn12` [Compound I-186], the IC50 was less than 0.1 µM.
`CNc1cc(Nc2cccn(C3CCOCC3)c2=O)nc2c(C(=O)NC3CC[C@@H]3F)cnn12` (stereo partly drawn) [Compound I-188] returned an IC50 of less than 0.1 µM.
In turn, `CNc1cc(Nc2cccn(C3CCOCC3)c2=O)nc2c(C(=O)N[C@@H]3CC[C@H]3F)cnn12` [Compound I-190] gave an IC50 of less than 0.1 µM.
`CNc1cc(Nc2cccn(C3CCOCC3)c2=O)nc2c(C(=O)NC3CC[C@H]3F)cnn12` (stereo partly drawn) [Compound I-191] returned an IC50 of less than 0.1 µM.
Consider `CNc1cc(Nc2cccn(C3CCOCC3)c2=O)nc2c(C(=O)N[C@H]3CC[C@H]3F)cnn12` [Compound I-192], for which the IC50 is less than 0.1 µM.
Turning to `CNc1cc(Nc2cccn(C3CCOCC3)c2=O)nc2c(C(=O)N[C@@H]3CC[C@@H]3F)cnn12` [Compound I-193], the IC50 was less than 0.1 µM.
For the compound `CNc1cc(Nc2cccn([C@@H]3CCCOC3)c2=O)nc2c(C(=O)NC3CC[C@@H]3F)cnn12` (stereo partly drawn) [Compound I-194], the IC50 is less than 0.1 µM.
As to `CNc1cc(Nc2cccn([C@@H]3CCCOC3)c2=O)nc2c(C(=O)N[C@@H]3CC[C@H]3F)cnn12` [Compound I-196], the IC50 was less than 0.1 µM.
As for `CNc1cc(Nc2cccn([C@H]3CCCOC3)c2=O)nc2c(C(=O)NC3CC[C@@H]3F)cnn12` (stereo partly drawn) [Compound I-197], the figure is less than 0.1 µM.
`CNc1cc(Nc2cccn([C@H]3CCCOC3)c2=O)nc2c(C(=O)N[C@H]3CC[C@@H]3F)cnn12` [Compound I-198] displayed a half-inhibitory concentration (IC50) of less than 0.1 µM.
Compound `CNc1cc(Nc2cccn(-c3ccccn3)c2=O)nc2c(C(=O)NC3CC[C@@H]3F)cnn12` (stereo partly drawn) [Compound I-200] displayed an IC50 of less than 0.1 µM.
With `CNc1cc(Nc2cccn(-c3ccccn3)c2=O)nc2c(C(=O)N[C@H]3CC[C@@H]3F)cnn12` [Compound I-201], the IC50 is less than 0.1 µM.
Compound `CNc1cc(Nc2cccn([C@H]3[C@@H]4COC[C@@H]43)c2=O)nc2c(C(=O)NC3CC[C@H]3F)cnn12` (stereo partly drawn) [Compound I-203] registered an IC50 of less than 0.1 µM.
As for `CNc1cc(Nc2cccn([C@H]3[C@@H]4COC[C@@H]43)c2=O)nc2c(C(=O)N[C@H]3CC[C@H]3F)cnn12` [Compound I-204], the figure is less than 0.1 µM; as for `CNc1cc(Nc2cccn([C@H]3[C@@H]4COC[C@@H]43)c2=O)nc2c(C(=O)N[C@@H]3CC[C@@H]3F)cnn12` [Compound I-205], less than 0.1 µM; as for `CNc1cc(Nc2cccn([C@H]3[C@@H]4COC[C@@H]43)c2=O)nc2c(C(=O)NC3CC[C@@H]3F)cnn12` (stereo partly drawn) [Compound I-206], less than 0.1 µM.
As for `CNc1cc(Nc2cccn([C@H]3[C@@H]4COC[C@@H]43)c2=O)nc2c(C(=O)N[C@@H]3CC[C@H]3F)cnn12` [Compound I-208], the IC50 was less than 0.1 µM.
The compound `CNc1cc(Nc2cccn([C@@H]3CCCC[C@@H]3O)c2=O)nc2c(C(=O)NC3CC[C@@H]3F)cnn12` (stereo partly drawn) [Compound I-209] registered an IC50 of less than 0.1 µM.
The result for `CNc1cc(Nc2cccn([C@@H]3CCCC[C@@H]3O)c2=O)nc2c(C(=O)N[C@@H]3CC[C@H]3F)cnn12` [Compound I-211] reads less than 0.1 µM; that for `CNc1cc(Nc2cccn([C@H]3CCCC[C@H]3O)c2=O)nc2c(C(=O)N[C@@H]3CC[C@H]3F)cnn12` [Compound I-214], less than 0.1 µM.
As for `CNc1cc(Nc2cccn([C@@H]3CCOC[C@@H]3OC)c2=O)nc2c(C(=O)N[C@@H]3CC[C@H]3F)cnn12` [Compound I-217], the figure is less than 0.1 µM; as for `CNc1cc(Nc2cccn([C@H]3CC[C@H](OC)CC3)c2=O)nc2c(C(=O)NC3CC[C@@H]3F)cnn12` (stereo partly drawn) [Compound I-224], less than 0.1 µM; as for `CNc1cc(Nc2cccn([C@H]3CC[C@H](OC)CC3)c2=O)nc2c(C(=O)N[C@H]3CC[C@@H]3F)cnn12` [Compound I-225], less than 0.1 µM.
